US12559681B2, “Solubilizing agent and solubilizing solution” (NOF CORPORATION, priority 2020, dated 2026)

What was measured:
[1] = Solubilization test of cholecalciferol (vitamin D3): turbidity (absorbance at 450 nm) of a mixture of solubilizing solution and cholecalciferol solution; format: physicochemical; settings: for turbidity: 100 μL + 1 μL cholecalciferol 20 mg/mL in ethanol, absorbance 450 nm minus PBS alone; for turbidity ratio to PBS: cholecalciferol, less than 10% = dissolved
Description: Cholecalciferol (vitamin D3) was dissolved in ethanol at a concentration of 20 mg/mL to prepare a cholecalciferol solution. […] The cholecalciferol solution was dispensed at 1 uL/well. The mixture in each well was stirred for 1 min, and the absorbance of the mixture at a wavelength of 450 nm was measured. In addition, the absorbance of PBS alone not containing cholecalciferol at a wavelength of 450 nm was measured. The difference between the absorbance of the mixture of the solubilizing solution and the cholecalciferol solution at a wavelength of 450 nm and the absorbance of PBS alone at a wavelength of 450 nm was taken as “turbidity of a mixture of a solubilizing solution and a cholecalciferol solution”. A smaller turbidity indicates a larger amount of a hardly water-soluble substance dissolved therein.
In the same manner as in the above except that PBS was used instead of the solubilizing solution, “turbidity of a mixture of PBS and a cholecalciferol solution” (that is, difference between the absorbance of a mixture of PBS and a cholecalciferol solution at a wavelength of 450 nm and the absorbance of PBS alone at a wavelength of 450 nm) was calculated.
(§1) As an index for evaluation of whether or not cholecalciferol is dissolved, turbidity ratio to PBS was calculated by the following formula: • turbidity ratio to PBS (%)=100×(turbidity of a mixture of solubilizing solution and cholecalciferol solution)/(turbidity of a mixture of PBS and cholecalciferol solution). When the turbidity ratio to PBS was less than 10%, cholecalciferol was evaluated to have been dissolved.

[2] = Solubilization test of DL-α-tocopherol (vitamin E): turbidity at 450 nm; format: physicochemical; settings: for turbidity: DL-α-tocopherol 20 mg/mL in ethanol, 1 μL/well, absorbance 450 nm minus PBS alone; for turbidity ratio to PBS: DL-α-tocopherol, less than 10% = dissolved
Description: DL-α-tocopherol (vitamin E) was dissolved in ethanol at a concentration of 20 mg/mL to prepare a DL-α-tocopherol solution.
In the same manner as above except that PBS was used instead of the solubilizing solution, “turbidity of a mixture of PBS and a DL-α-tocopherol solution” (that is, difference between the absorbance of a mixture of PBS and a DL-α-tocopherol solution at a wavelength of 450 nm and the absorbance of PBS alone at a wavelength of 450 nm) was calculated.
As an index for evaluation of whether or not DL-α-tocopherol is dissolved, turbidity ratio to PBS was calculated by the following formula: turbidity ratio to PBS (%)=100×(turbidity of a mixture of solubilizing solution and DL-α-tocopherol solution)/(turbidity of a mixture of PBS and DL-x-tocopherol solution). When the turbidity ratio to PBS was less than 10%, DL-α-tocopherol was evaluated to have been dissolved.

[3] = Solubilization test of hydrocortisone: turbidity at 450 nm; format: physicochemical; settings: for turbidity: solubilizing agent 0.050% by mass in PBS, hydrocortisone 20 mg/mL in ethanol, 125 μL/well, absorbance 450 nm minus PBS alone; for turbidity ratio to PBS: solubilizing agent 0.050% by mass, hydrocortisone, less than 10% = dissolved
Description: Hydrocortisone was dissolved in ethanol at a concentration of 20 mg/mL to prepare a hydrocortisone solution.
In the same manner as above except that PBS was used instead of the solubilizing solution, “turbidity of a mixture of PBS and a hydrocortisone solution” (that is, difference between the absorbance of a mixture of PBS and a hydrocortisone solution at a wavelength of 450 nm and the absorbance of PBS alone at a wavelength of 450 nm) was measured.

[4] = Solubility of the hardly water-soluble substance in PBS (statement); settings: PBS without solubilizing agent
[5] = Solubilization test of lauric acid: turbidity at 450 nm; format: physicochemical; settings: for turbidity: solubilizing agent 5.000% by mass in PBS, lauric acid 100 mg/mL in ethanol, 3 μL/well, absorbance 450 nm minus PBS alone; for turbidity ratio to PBS: solubilizing agent 5.000% by mass, lauric acid, less than 10% = dissolved
Description: Lauric acid was dissolved in ethanol at a concentration of 100 mg/mL to prepare a lauric acid solution.
In the same manner as above except that PBS was used instead of the solubilizing solution, “turbidity of a mixture of PBS and a lauric acid solution” (that is, difference between the absorbance of a mixture of PBS and a lauric acid solution at a wavelength of 450 nm and the absorbance of PBS alone at a wavelength of 450 nm) was calculated.
as §1, with “lauric acid” for “cholecalciferol”

[6] = Solubilization test of myristic acid: turbidity at 450 nm; format: physicochemical; settings: for turbidity: solubilizing agent 5.000% by mass in PBS, myristic acid 100 mg/mL in ethanol, 3 μL/well, absorbance 450 nm minus PBS alone; for turbidity ratio to PBS: solubilizing agent 5.000% by mass, myristic acid, less than 10% = dissolved
Description: Myristic acid was dissolved in ethanol at a concentration of 100 mg/mL to prepare a myristic acid solution.
In the same manner as above except that PBS was used instead of the solubilizing solution, “turbidity of a mixture of PBS and a myristic acid solution” (that is, difference between the absorbance of a mixture of PBS and a myristic acid solution at a wavelength of 450 nm and the absorbance of PBS alone at a wavelength of 450 nm) was calculated.
as §1, with “myristic acid” for “cholecalciferol”

[7] = solubilizing agent 0.025% by mass in PBS
[8] = solubilizing agent 0.025% by mass
[9] = solubilizing agent 0.050% by mass in PBS
[10] = solubilizing agent 0.050% by mass

Row | Compound | solubility in PBS [4] | turbidity [1, 7] | turbidity ratio to PBS [1, 8] [%] | turbidity [1, 9] | turbidity ratio to PBS [1, 10] [%] | turbidity [2, 9] | turbidity ratio to PBS [2, 10] [%] | also measured
1 | CCCCCCCCCCCCSCC(C)C(=O)OCCOP(=O)([O-])OCC[N+](C)(C)C (centres unmarked) [Synthetic Example 2, 2-[3-(dodecylsulfanyl)-2-methylpropionyloxy]ethyl-2-(trimethylammonio)ethyl phosphate] | – | 0.0080 | 3 | 0.0009 | 0 | 0.0153 | 9 | –
2 | CCCCCCCCCCCCCCCCSCC(C)C(=O)OCCOP(=O)([O-])OCC[N+](C)(C)C (centres unmarked) [Synthetic Example 3, 2-[3-(hexadecylsulfanyl)-2-methylpropionyloxy]ethyl-2-(trimethylammonio)ethyl phosphate] | – | 0.0231 | 9 | 0.0139 | 6 | – | – | turbidity [3]: 0.0015; turbidity ratio to PBS [3]: 3%; turbidity ratio to PBS ([3]; listed as Example 3-3): less than 10%
3 | Cc1c(C)c2c(c(C)c1O)CCC(C)(CCCC(C)CCCC(C)CCCC(C)C)O2 (racemic) [DL-α-tocopherol, reference compound] | insoluble | – | – | – | – | – | – | –
4 | CCCCCCCCSCC(C)C(=O)OCCOP(=O)([O-])OCC[N+](C)(C)C (centres unmarked) [Synthetic Example 1, 2-[3-(octylsulfanyl)-2-methylpropionyloxy]ethyl-2-(trimethylammonio)ethyl phosphate] | – | 0.0229 | 9 | 0.0132 | 5 | 0.0000 | 0 | turbidity [5]: 0.0000; turbidity ratio to PBS [5]: 0%; turbidity ratio to PBS ([5]; listed as Example 4-1): less than 10%; turbidity [6]: 0.0231; turbidity ratio to PBS [6]: 5%; turbidity ratio to PBS ([6]; listed as Example 5-1): less than 10%; turbidity [2, 7]: 0.0150; turbidity ratio to PBS [2, 8]: 9%
5 | Triton X-100 [reference compound] | – | – | – | 0.0331 | 13 | 0.2573 | 147 | turbidity [3]: 0.0910; turbidity ratio to PBS [3]: 205%; turbidity [5]: 0.0002; turbidity ratio to PBS [5]: 0%; turbidity [6]: 0.0601; turbidity ratio to PBS [6]: 14%; turbidity ratio to PBS ([2]; solubilizing agent 0.050% by mass, listed as Comparative Example 2-2-1): not less than 10%

Now from value to compound, other results behind:

Row | solubility in PBS [4] | Compound | turbidity [1, 7] | turbidity ratio to PBS [1, 8] [%] | turbidity [1, 9] | turbidity ratio to PBS [1, 10] [%] | turbidity [2, 9] | turbidity ratio to PBS [2, 10] [%] | also measured
6 | insoluble | CCCCCCCCCCCCCC(=O)O [Myristic acid] | – | – | – | – | – | – | –
7 | insoluble | CCCCCCCCCCCC(=O)O [Lauric acid] | – | – | – | – | – | – | –
